Five compounds from patent publication US10894817B2, “Fatty acid modified urocortin-2 analogs for the treatment of diabetes and chronic kidney disease” (priority 2016, dated 2021) can be followed below.

Starred links: 1 amine or outer side, 2 acyl side, 3 side chain; linkers in the order of their positions; H or OH if unused. Residues, ends and D or L forms follow the SMILES beside them. Groups on a side chain read outwards from the residue. *: point of attachment. C18 diacid = O=C(O)CCCCCCCCCCCCCCCCC(=O)*; γGlu = O=C(O)[C@H](CCC(=O)[*:2])N[*:1]; Palmitoyl = CCCCCCCCCCCCCCCC(=O)*; AEEA = NCCOCCOCC(=O)O

For this experiment, the target named is T1, human CRHR2b (Homo sapiens, UniProt Q13324).
T1 construct: expressed in transfected cells; host or cells: Chinese Hamster Ovary (CHO) cells, transient transfection
T1 sequence (Q13324 1-438 isoform Q13324-2): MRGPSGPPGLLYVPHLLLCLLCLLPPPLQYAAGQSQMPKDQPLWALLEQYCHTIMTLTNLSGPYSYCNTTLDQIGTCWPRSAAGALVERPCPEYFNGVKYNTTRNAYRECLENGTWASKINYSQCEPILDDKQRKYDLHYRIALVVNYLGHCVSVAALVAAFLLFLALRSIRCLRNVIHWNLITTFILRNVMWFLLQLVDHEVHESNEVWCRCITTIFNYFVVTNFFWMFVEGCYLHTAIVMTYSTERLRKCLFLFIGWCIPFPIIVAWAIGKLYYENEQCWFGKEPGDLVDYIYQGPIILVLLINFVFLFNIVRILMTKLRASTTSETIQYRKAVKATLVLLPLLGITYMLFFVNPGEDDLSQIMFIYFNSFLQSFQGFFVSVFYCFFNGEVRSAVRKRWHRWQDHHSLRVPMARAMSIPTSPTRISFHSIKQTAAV
Put plainly: human CRHR2b cell-based cAMP assay. The conditions noted are these: cAMP assay; Table 26, compounds of Example 9; read-out: hCRHR2b Average EC50. The procedure, abridged:
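ED50 values are means ± SEM over several runs, curve-fitted from cAMP in pmol, calibrated against unlabeled-cAMP standards. Detection was HTRF competition, ratio 665/620 nm, after 30 min agonist exposure at 37 °C.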
Consider `CCCCCCCCCCCCCCCC(=O)N[C@@H](CCC(=O)NCCCC[C@H](NC(=O)[C@H](CCC(N)=O)NC(=O)[C@H](CCC(N)=O)NC(=O)[C@H](CCCCN)NC(=O)[C@H](CCC(=O)O)NC(=O)[C@H](CCCCN)NC(=O)[C@H](CCC(=O)O)NC(=O)[C@H](CCC(N)=O)NC(=O)[C@H](CCCCN)NC(=O)[C@H](CCC(=O)O)NC(=O)[C@H](CCC(N)=O)NC(=O)[C@H](CCC(=O)O)NC(=O)[C@H](CC(C)C)NC(=O)[C@H](CC(C)C)NC(=O)[C@@H](NC(=O)[C@H](CCC(N)=O)NC(=O)[C@H](CC(C)C)NC(=O)[C@H](CC(C)C)NC(=O)CNC(=O)[C@@H](NC(=O)[C@@H]1CCCN1C(=O)[C@@H](NC(=O)[C@H](CC(=O)O)NC(=O)[C@H](CC(C)C)NC(=O)[C@H](CO)NC(=O)[C@H](CC(C)C)NC(=O)[C@@H](NC(=O)[C@@H](N)[C@@H](C)CC)C(C)C)C(C)C)[C@@H](C)CC)[C@@H](C)CC)C(=O)N[C@H](C(=O)N[C@H](C(=O)N[C@@H](CC(N)=O)C(=O)N[C@@H](C)C(=O)N[C@@H](CCCNC(=N)N)C(=O)N[C@H](C(=O)N[C@@H](CC(C)C)C(=O)N[C@@H](C)C(=O)N[C@@H](CCCNC(=N)N)C(=O)N[C@H](C(N)=O)C(C)C)[C@@H](C)CC)[C@@H](C)O)[C@@H](C)O)C(=O)O` [Compound 36] (H-IVLSLDVPIGLLQILLEQEKQEKEKQQK([γGlu-Palmitoyl])TTNARILARV-NH2), for which the EC50 stood at 331 nM. As for `CCCCCCCCCCCCCCCC(=O)N[C@@H](CCC(=O)NCCCC[C@H](NC(=O)[C@H](C)NC(=O)[C@H](CCC(N)=O)NC(=O)[C@H](CCC(N)=O)NC(=O)[C@H](CCCCN)NC(=O)[C@H](CCC(=O)O)NC(=O)[C@H](CCCCN)NC(=O)[C@H](CCC(=O)O)NC(=O)[C@H](CCC(N)=O)NC(=O)[C@H](CCCCN)NC(=O)[C@H](CCC(=O)O)NC(=O)[C@H](CCC(N)=O)NC(=O)[C@H](CCC(=O)O)NC(=O)[C@H](CC(C)C)NC(=O)[C@H](CC(C)C)NC(=O)[C@@H](NC(=O)[C@H](CCC(N)=O)NC(=O)[C@H](CC(C)C)NC(=O)[C@H](CC(C)C)NC(=O)CNC(=O)[C@@H](NC(=O)[C@@H]1CCCN1C(=O)[C@@H](NC(=O)[C@H](CC(=O)O)NC(=O)[C@H](CC(C)C)NC(=O)[C@H](CO)NC(=O)[C@H](CC(C)C)NC(=O)[C@@H](NC(=O)[C@@H](N)[C@@H](C)CC)C(C)C)C(C)C)[C@@H](C)CC)[C@@H](C)CC)C(=O)N[C@H](C(=O)N[C@@H](CC(N)=O)C(=O)N[C@@H](C)C(=O)N[C@@H](CCCNC(=N)N)C(=O)N[C@H](C(=O)N[C@@H](CC(C)C)C(=O)N[C@@H](C)C(=O)N[C@@H](CCCNC(=N)N)C(=O)N[C@H](C(N)=O)C(C)C)[C@@H](C)CC)[C@@H](C)O)C(=O)O` [Compound 37] (H-IVLSLDVPIGLLQILLEQEKQEKEKQQAK([γGlu-Palmitoyl])TNARILARV-NH2), the concentration for a half-maximal effect (EC50) was determined as 24.1 nM. Next, `CCCCCCCCCCCCCCCC(=O)N[C@@H](CCC(=O)N[C@@H](CCC(=O)NCCCC[C@H](NC(=O)[C@H](C)NC(=O)[C@H](CCC(N)=O)NC(=O)[C@H](CCC(N)=O)NC(=O)[C@H](CCCCN)NC(=O)[C@H](CCC(=O)O)NC(=O)[C@H](CCCCN)NC(=O)[C@H](CCC(=O)O)NC(=O)[C@H](CCC(N)=O)NC(=O)[C@H](CCCCN)NC(=O)[C@H](CCC(=O)O)NC(=O)[C@H](CCC(N)=O)NC(=O)[C@H](CCC(=O)O)NC(=O)[C@H](CC(C)C)NC(=O)[C@H](CC(C)C)NC(=O)[C@@H](NC(=O)[C@H](CCC(N)=O)NC(=O)[C@H](CC(C)C)NC(=O)[C@H](CC(C)C)NC(=O)CNC(=O)[C@@H](NC(=O)[C@@H]1CCCN1C(=O)[C@@H](NC(=O)[C@H](CC(=O)O)NC(=O)[C@H](CC(C)C)NC(=O)[C@H](CO)NC(=O)[C@H](CC(C)C)NC(=O)[C@@H](NC(=O)[C@@H](N)[C@@H](C)CC)C(C)C)C(C)C)[C@@H](C)CC)[C@@H](C)CC)C(=O)N[C@H](C(=O)N[C@@H](CC(N)=O)C(=O)N[C@@H](C)C(=O)N[C@@H](CCCNC(=N)N)C(=O)N[C@H](C(=O)N[C@@H](CC(C)C)C(=O)N[C@@H](C)C(=O)N[C@@H](CCCNC(=N)N)C(=O)N[C@H](C(N)=O)C(C)C)[C@@H](C)CC)[C@@H](C)O)C(=O)O)C(=O)O` [Compound 38] (H-IVLSLDVPIGLLQILLEQEKQEKEKQQAK([γGlu-γGlu-Palmitoyl])TNARILARV-NH2): 2.33 nM; `CCCCCCCCCCCCCCCC(=O)N[C@@H](CCC(=O)NCCCC[C@H](NC(=O)[C@@H](NC(=O)[C@H](C)NC(=O)[C@H](CCC(N)=O)NC(=O)[C@H](CCC(N)=O)NC(=O)[C@H](CCCCN)NC(=O)[C@H](CCC(=O)O)NC(=O)[C@H](CCCCN)NC(=O)[C@H](CCC(=O)O)NC(=O)[C@H](CCC(N)=O)NC(=O)[C@H](CCCCN)NC(=O)[C@H](CCC(=O)O)NC(=O)[C@H](CCC(N)=O)NC(=O)[C@H](CCC(=O)O)NC(=O)[C@H](CC(C)C)NC(=O)[C@H](CC(C)C)NC(=O)[C@@H](NC(=O)[C@H](CCC(N)=O)NC(=O)[C@H](CC(C)C)NC(=O)[C@H](CC(C)C)NC(=O)CNC(=O)[C@@H](NC(=O)[C@@H]1CCCN1C(=O)[C@@H](NC(=O)[C@H](CC(=O)O)NC(=O)[C@H](CC(C)C)NC(=O)[C@H](CO)NC(=O)[C@H](CC(C)C)NC(=O)[C@@H](NC(=O)[C@@H](N)[C@@H](C)CC)C(C)C)C(C)C)[C@@H](C)CC)[C@@H](C)CC)[C@@H](C)O)C(=O)N[C@@H](CC(N)=O)C(=O)N[C@@H](C)C(=O)N[C@@H](CCCNC(=N)N)C(=O)N[C@H](C(=O)N[C@@H](CC(C)C)C(=O)N[C@@H](C)C(=O)N[C@@H](CCCNC(=N)N)C(=O)N[C@H](C(N)=O)C(C)C)[C@@H](C)CC)C(=O)O` [Compound 39] (H-IVLSLDVPIGLLQILLEQEKQEKEKQQATK([γGlu-Palmitoyl])NARILARV-NH2): 27 nM.

Turning to `CC[C@H](C)[C@H](N)C(=O)N[C@H](C(=O)N[C@@H](CC(C)C)C(=O)N[C@@H](CO)C(=O)N[C@@H](CC(C)C)C(=O)N[C@@H](CC(=O)O)C(=O)N[C@H](C(=O)N1CCC[C@H]1C(=O)N[C@H](C(=O)NCC(=O)N[C@@H](CC(C)C)C(=O)N[C@@H](CC(C)C)C(=O)N[C@@H](CCC(N)=O)C(=O)N[C@@H](CCCCNC(=O)COCCOCCNC(=O)COCCOCCNC(=O)CC[C@H](NC(=O)CC[C@H](NC(=O)CCCCCCCCCCCCCCCCC(=O)O)C(=O)O)C(=O)O)C(=O)N[C@@H](CC(C)C)C(=O)N[C@@H](CC(C)C)C(=O)N[C@@H](CCC(=O)O)C(=O)N[C@@H](CCC(N)=O)C(=O)N[C@@H](CCC(=O)O)C(=O)N[C@@H](CCCCN)C(=O)N[C@@H](CCC(N)=O)C(=O)N[C@@H](CCC(=O)O)C(=O)N[C@@H](CCCCN)C(=O)N[C@@H](CCC(=O)O)C(=O)N[C@@H](CCCCN)C(=O)N[C@@H](CCC(N)=O)C(=O)N[C@@H](CCC(N)=O)C(=O)N[C@@H](C)C(=O)N[C@H](C(=O)N[C@H](C(=O)N[C@@H](CC(N)=O)C(=O)N[C@@H](C)C(=O)N[C@@H](CCC(N)=O)C(=O)N[C@H](C(=O)N[C@@H](CC(C)C)C(=O)N[C@@H](C)C(=O)N[C@@H](Cc1c[nH]cn1)C(=O)N[C@H](C(N)=O)C(C)C)[C@@H](C)CC)[C@@H](C)O)[C@@H](C)O)[C@@H](C)CC)C(C)C)C(C)C` [Compound 40] (H-IVLSLDVPIGLLQK([AEEA-AEEA-γGlu-γGlu-C18 diacid])LLEQEKQEKEKQQATTNAQILAHV-NH2), the half-maximal effective concentration (EC50) came out at 55.9 nM.

Usually EC50 stands for the concentration giving half of the maximal effect.
